From PMC5133449, “Peripheral self-reactivity regulates antigen-specific CD8 T-cell responses and cell division under physiological conditions” (Open Biology, 2016) come the findings set out here.

For data set [1], the system named is CD8 T cells from Rop7-II mice. Description: Peptide-loaded H-2 L^d tetramer staining. It is filed as cell-based, mouse. The following applies: caged tetramer approach, H-2 L^d tetramers loaded with peptide, splenocytes, flow cytometry. The protocol:
(§1) Figure 2. Binding of Rop7-I, -II and -III to Rop7 peptide variants. (a) Splenocytes from WT or Rop7-I, -II and -III heterozygous mice were stained for CD8 and with H-2 L^d tetramers loaded with the indicated peptides. Histograms show H-2 L^d-Rop7 variants staining on CD8 T cells from WT or Rop7 mice. (b) TCRs from Rop7-I, -II and -III T cells were recombinantly expressed and refolded. Binding affinities for IPAAAGRFF-, IPAFAGRFF- and IPANAGRFF-loaded H-2 L^d were measured with a BIAcore 3000 and analysed using an equilibrium model. The raw data (black lines), fits (red lines) and calculated dissociation constant are shown in each panel.
(§2) Purified anti-CD3 (clone 17A2) and anti-CD28 (clone 37.51) antibodies, fluorescently labelled Granzyme B (clone 16G6), CD3ɛ (clone 145-2C11), CD4 (clone GK1.5), CD8 (clone 53-6.7), CD45.1 (clone A20) specific antibodies were purchased from eBioscience. Biotinylated anti-CD4 (clone GK1.5), anti-CD19 (clone 1D3), fluorescently labelled CD25 (clone 7D4), CD44 (clone 1M7), CD69 (clone H1.2F3), TNFα (clone MP6-XT22) and actin (clone ab-5) specific antibodies were purchased from BD Biosciences. Fluorescently labelled CD5 (clone 53-7.3), CD28 (clone E18), CD62 L (clone mel-14), Ki-67 (clone 16A8) specific antibodies and Zombie Aqua (cat. no. 423101) were purchased from Biolegend. Fluorescently labelled anti-IFNγclone 9004) was purchased from Sigma. Anti-phospho-tyrosine residue (clone 4G10) was purchased from Millipore. Anti-phopho-ERK (Thr202/Tyr204) (D13.14.4E, cat. no. 4370) and anti-phospho-S6 (Ser235/236) (D57.2.2E, cat. no. 4858) were purchased from Cell Signalling Technology. Horseradish peroxidase-conjugated anti-mouse antibody was purchased from GE Healthcare (cat. no. NXA931). Horseradish peroxidase-conjugated goat anti-rabbit antibody was purchased from Southern Biotech (cat. no. 4041-05). CD8 T cells isolation kit (130-095-236) and anti-biotin beads (130-090-485) were purchased from Miltenyi and used according to the manufacturer's instructions. ELISA kits for the detection of mouse IL-2 (cat. no. 431001), IFNγ (cat. no. 430801) and TNFα (cat. no. 430901) were purchased from BioLegend. ELISA for mouse IgM (cat. no. 88-50470-22) and IgG (cat. no. 88-50400-22) were purchased from Ebioscience. Recombinant mouse GM-CSF (cat. no. 315-03), IL-2 (212-12) and IL-4 (cat. no. 214-14) were purchased from Peprotech. Carboxyfluorescein succinimidyl ester (CFSE) was purchased from Sigma (cat. no. 21888). Protease inhibitor cocktail was purchased from Roche (cat. no. 11836153001). H-2 L^d tetramers were produced and used as described elsewhere or obtained from the NIH tetramer facility. All peptides were produced by the MIT biopolymer facility through standard solid-phase peptide synthesis or purchased from Pepceuticals, UK.

For data set [2], the system named is CD8 T cells from Rop7-I mice. The data set is described as follows: Peptide-loaded H-2 L^d tetramer staining. It is filed as cell-based, mouse. The following applies: caged tetramer approach, H-2 L^d tetramers loaded with peptide, splenocytes, flow cytometry. Here is the method:
as §1, §2

For data set [3], the system named is CD8 T cells from Rop7-III mice. The data set is described as follows: Peptide-loaded H-2 L^d tetramer staining. Type of data set: cell-based, mouse. The following applies: caged tetramer approach, H-2 L^d tetramers loaded with peptide, splenocytes, flow cytometry. Here is the method:
as §1, §2

A further data set deals with Rop7-III TCR. Description: SPR affinity of H-2 L^d-peptide complexes for immobilised recombinant Rop7-III TCR (BIAcore 3000). Type of data set: binding, mouse. Particulars: peptide loaded in H-2 L^d as analyte, 1 to 200 µM, 25°C, biotinylated TCR on streptavidin CM5 chip, equilibrium model, at least duplicates; read-out: dissociation constant Kd. The protocol: as §1
For the Rop7-I, -II and -III TCRs, the α and β chains were cloned individually in the bacterial expression vector pET28a. Residues threonine 46 of the α chain's and serine 57 of the β chain's constant regions were mutated to cysteine to enable non-native disulfide bridge formation within the heterodimer complex. A biotinylation sequence was introduced at the C terminus of the β chain. The chains were separately expressed in Escherichia coli. BL21-DE3 (pLysS) and obtained as inclusion bodies and dissolved in 8 M urea, 25 mM MES, 1 mM EDTA, 1 mM DTT at pH 6.0. […] The final response was calculated after subtracting the control cell response. […] Equilibrium Kd values were calculated by nonlinear curve fitting of background-subtracted data using PRISM software.
(In general: In SPR one partner is held on a chip, and binding of the other changes the refractive index at the surface.)

The subject of data set [4] is Rop7-II CD8 T cells. Description: Cytokine secretion with peptide-loaded BMDC. Type of data set: cell-based, mouse. Particulars: 1 or 0.01 µg/ml, supernatant after 3 days, ELISA or multiplex, n = 3 technical replicates. The text has this:
(§3) Figure 4. Rop7 CD8 T cells proliferation and cytokine secretion upon Rop7 peptide variant stimulation. Sorted CD8^+ tetramer^+ T cells from pooled lymph nodes and spleen of Rop7-I, -II or -III heterozygous mice were labelled with CFSE and stimulated with BMDC loaded with Rop7 peptide variants at indicated concentrations. (a) Histograms show CFSE dilution on sorted CD8 T cells from Rop7-I, -II or -III mice stimulated with IPAAAGRFF peptide-loaded BMDC after 3 days of stimulation. (b) IL-2, TNFα and IFNγ concentration measured in culture supernatant after 3 days of stimulation. Mean of three technical replicates (T-cell stimulation). Error bars: standard deviation (n = 3). Representative of three independent experiments. (c) Bar histograms show the percentage of living cells (Zombie Aqua negative) after 3 days of stimulation with IPAAAGRFF-loaded BMDC. Mean of three technical replicates (T-cell stimulation). Error bars: standard deviation (n = 3). Representative of three independent experiments. (d) Histograms show CFSE dilution on sorted CD8 T cells from Rop7-I or -II heterozygous mice stimulated with IPANAGRFF peptide-loaded BMDC after 3 days of stimulation. (e) IL-2, TNFα and IFNγ concentration measured in culture supernatant after 3 days of stimulation. Mean of three technical replicates (T-cell stimulation). Error bars: standard deviation (n = 3). Representative of three independent experiments. (f) Bar histograms show the percentage of living cells (Zombie Aqua negative) after 3 days of stimulation with IPANAGRFF-loaded BMDC. *p < 0.05, **p < 0.01, ***p < 0.001 (Student's t-test).
(§4) Cytokine concentrations were measured by ELISA according to the manufacturer's instructions or by multiplex assay (Eve Technologies, Calgary, Alberta, Canada).

A further data set relates to Rop7-I CD8 T cells. Description: T-cell proliferation (CFSE dilution) with peptide-loaded BMDC. It is filed as cell-based, mouse. The following applies: 1 or 0.01 µg/ml, 3 days.
Description: as §3
(§5) Anti-CD3/28: plate-bound anti-CD3 (clone 17A2) and anti-CD28 (clone 37.51) at indicated concentrations in flat bottom 96-well plates in the presence of 10 ng ml^–1 recombinant mouse IL-2 when specified. BMDC: dendritic cells differentiated from bone marrow progenitors for 5–7 days in GM-CSF and IL-4 containing medium loaded with Rop7 peptide (final concentration 1 or 0.01 µg ml^−1). When indicated, 10–20 × 10^6 cells per millilitre were labelled in PBS 2.5 µM CFSE for 2 min at room temperature.

For data set [5], the system named is Rop7-II CD8 T cells. The description is as above. Type of data set: cell-based, mouse. Particulars: 1 or 0.01 µg/ml, 3 days.
Description: as §3, §5

Data set [6] has as its system Rop7-II CD8 T cells. The data set is described as follows: T-cell viability (Zombie Aqua) with peptide-loaded BMDC. It is filed as cell-based, mouse. Particulars: 3 days.
Description: as §3, with “Representative of three independent experiments. (f) Bar histograms show the percentage of living cells (Zombie Aqua negative) after 3 days of stimulation with IPANAGRFF-loaded BMDC. *p < 0.05, **p < 0.01, ***p < 0.001 (Student's t-test).” left out

For the next data set, the system named is Rop7 CD8 T cells. Particulars: BMDC loaded with Rop7 peptide 1 µg/ml, 72 h, then peptide-loaded target splenocytes 16–20 h.
Data set [7] concerns Rop7-III CD8 T cells. The data set is described as follows: Cytokine secretion with peptide-loaded BMDC. It is filed as cell-based, mouse. Particulars: 1 or 0.01 µg/ml, supernatant after 3 days, ELISA or multiplex, n = 3 technical replicates.
Description: as §3, §4
(In general: An ELISA detects its analyte on a solid surface through an enzyme-linked reagent.)

Data set [8] has as its system Rop7-III CD8 T cells. The data set is described as follows: T-cell proliferation (CFSE dilution) with peptide-loaded BMDC. Type of data set: cell-based, mouse. Particulars: 1 or 0.01 µg/ml, 3 days.
Description: as §3, §5

Entries after “also recorded” stand apart in the source; their conditions may differ.

By Kd is commonly meant the equilibrium constant for the complex coming apart.

Description for Rop7 CD8 T cells: A measure of 1–2 × 10^5 sorted CD4^+ or CD8^+ tetramers^+ cells from pooled spleen and lymph nodes of Rop7-I, -II or -III mice were stimulated in complete RPMI in 96-well round bottom plates together with 0.5 × 10^5 Rop7 peptide-loaded BMDC (final concentration 1 µg ml^−1). After 72 h, cells were harvested and incubated with 10^5 total cells of a 1 to 1 mixture of CFSE-labelled, Rop7 peptide-loaded CD45.1 BALB/c splenocytes (final concentration 1 µg ml^−1) and control, CFSE-labelled, DMSO-treated CD45.2 BALB/c splenocytes in 96-well round bottom plates. After 16–20 h the ratio of living (propidium iodide negative) CD45.1 versus CD45.2 cells was determined by flow cytometry.

IPAFAGRFF: the tetramer binding result in [1], in data set [2] and in data set [3] was “only Rop7-II T cells bound” each time. The Kd at Rop7-III TCR was > 200 µM.
As for IPANAGRFF, the tetramer binding entry in data set [1] is “Rop7-I and -II, but not Rop7-III T cells bound”; in data set [2], “Rop7-I and -II, but not Rop7-III T cells bound”; in [3], “not Rop7-III T cells bound”. The “IL-2, TNFα and IFNγ production” value with Rop7-II CD8 T cells [4] is “produced significantly fewer cytokines; also recorded: equally poor ability to secrete cytokines”. In addition, the proliferation entry in the data set with Rop7-I CD8 T cells and with Rop7-II CD8 T cells [5] was “able to proliferate upon stimulation” each time. Moreover, at Rop7-III TCR, the Kd was > 200 µM. Besides, the “cell death / living cells” value in the data set with Rop7-II CD8 T cells [6] was “more prone to cell death at both peptide concentrations; also recorded: enhanced cell death compared with Rop7-I CD8 T cells”.
Regarding “IPAAAGRFF [peptide … derived from the Rop7 protein of Toxoplasma gondii]”, the cytotoxicity entry in the data set with Rop7 CD8 T cells is given as “all Rop7 CD8 T cells were cytotoxic, albeit with subtle but notable differences”. The tetramer binding entry is “slightly less avid than binding to Rop7-I or -III” in data set [1]; “bound tetramers loaded with the nominal antigen (IPAAAGRFF), with little quantitative variation” in data set [2]; “bound tetramers loaded with the nominal antigen (IPAAAGRFF), with little quantitative variation” in data set [3]. In addition, the “IL-2, TNFα and IFNγ production” value with Rop7-II CD8 T cells [4] is “produced overall less IL-2, TNFα and IFNγ; also recorded: secreted significantly fewer cytokines compared with Rop7-I and -III CD8 T cells”; with Rop7-III CD8 T cells [7], “secreted increased amounts of IL-2 and IFNγ but not TNFα when compared with Rop7-I; also recorded: produced significantly more IL-2 and IFNγ, but not TNFα, compared with Rop7-I CD8 T cells”. Moreover, the proliferation result with Rop7-I CD8 T cells, with Rop7-II CD8 T cells [5] and in the data set with Rop7-III CD8 T cells [8] was “able to proliferate upon antigenic stimulation in a dose-dependent manner” in each case. The “cell death / living cells” value in the data set with Rop7-II CD8 T cells [6] is reported as “significantly increased tendency to cell death at a lower degree of stimulation; also recorded: an increased proportion of cells died as the strength of stimulus decreased”.
